Data published in US4764589A, “[N-alpha-acyl,8-glycine, des-19-leucine]-calcitonin” (Rorer Pharmaceutical Corporation, priority 1987, dated 1988).
Where a SMILES comes first, the peptide text is derived from it. Bridges are numbered along the chain shown (N, C = ends). The star is where a group is joined. Propionyl = CCC(=O)*

Tested on: serum calcium concentration
Method: Biological Assay of Calcitonin Analogs in Vivo
The biological potency of [N-alpha-Propionyl, 8-glycine, des-19-leucine] salmon calcitonin was determined by comparing the reduction of serum calcium concentration which followed administration by graded doses of [N-alpha-Propionyl, Gly^8, des-Leu^19 ]-SCT and synthetic salmon calcitonin standard. Rats were divided into four groups of seven animals, and each group was assigend at random to a dose of standard or test solution. Low and high doses were chosen from the linear portion of the dose-response curve. For the salmon calcitonin standard, the values were 0.7 and 2.1 ng. peptide/100 g. BW. Peptides were given by subcutaneous injection (0.2 ml/100 g. BW) and blood was withdrawn 1 hour later for serum calcium determination. Sera are processed and analyzed within two hours of collection.

| Compound | biological potency of the standard, independently determined (standard salmon calcitonin used in the assay) | biological potency (rat, in vivo, sc) |
| --- | --- | --- |
| CC(C)C[C@H](NC(=O)[C@H](CCCCN)NC(=O)CNC(=O)[C@H](CC(C)C)NC(=O)[C@@H](NC(=O)[C@@H]1CSSC[C@H](N)C(=O)N[C@@H](CO)C(=O)N[C@@H](CC(N)=O)C(=O)N[C@@H](CC(C)C)C(=O)N[C@@H](CO)C(=O)N[C@@H]([C@@H](C)O)C(=O)N1)C(C)C)C(=O)N[C@@H](CO)C(=O)N[C@@H](CCC(N)=O)C(=O)N[C@@H](CCC(=O)O)C(=O)N[C@@H](CC(C)C)C(=O)N[C@@H](Cc1c[nH]cn1)C(=O)N[C@@H](CCCCN)C(=O)N[C@@H](CC(C)C)C(=O)N[C@@H](CCC(N)=O)C(=O)N[C@H](C(=O)N[C@@H](Cc1ccc(O)cc1)C(=O)N1CCC[C@H]1C(=O)N[C@@H](CCCNC(=N)N)C(=O)N[C@H](C(=O)N[C@@H](CC(N)=O)C(=O)N[C@H](C(=O)NCC(=O)N[C@@H](CO)C(=O)NCC(=O)N[C@H](C(=O)N1CCC[C@H]1C(N)=O)[C@@H](C)O)[C@@H](C)O)[C@@H](C)O)[C@@H](C)O [standard salmon calcitonin, Salmon calcitonin] | greater than 4,000 IU/mg |  |
| CCC(=O)N[C@H]1CSSC[C@@H](C(=O)NCC(=O)N[C@@H](CC(C)C)C(=O)NCC(=O)N[C@@H](CCCCN)C(=O)N[C@@H](CC(C)C)C(=O)N[C@@H](CO)C(=O)N[C@@H](CCC(N)=O)C(=O)N[C@@H](CCC(=O)O)C(=O)N[C@@H](CC(C)C)C(=O)N[C@@H](Cc2c[nH]cn2)C(=O)N[C@@H](CCCCN)C(=O)N[C@@H](CCC(N)=O)C(=O)N[C@H](C(=O)N[C@@H](Cc2ccc(O)cc2)C(=O)N2CCC[C@H]2C(=O)N[C@@H](CCCNC(=N)N)C(=O)N[C@H](C(=O)N[C@@H](CC(N)=O)C(=O)N[C@H](C(=O)NCC(=O)N[C@@H](CO)C(=O)NCC(=O)N[C@H](C(=O)N2CCC[C@H]2C(N)=O)[C@@H](C)O)[C@@H](C)O)[C@@H](C)O)[C@@H](C)O)NC(=O)[C@H]([C@@H](C)O)NC(=O)[C@H](CO)NC(=O)[C@H](CC(C)C)NC(=O)[C@H](CC(N)=O)NC(=O)[C@H](CO)NC1=O [[N alpha-propionyl, 8-glycine, des-19-leucine] salmon calcitonin] (Propionyl-CSNLSTCGLGKLSQELHKQTYPRTNTGSGTP-NH2; disulfide 1-7) |  | 9,700 IU/mg |
